According to patent US20260159519A1, “IMIDAZOPYRIDAZINE SUBSTITUTED BENZENE RING DERIVATIVE, PREPARATION METHOD, PHARMACEUTICAL COMPOSITION AND USE” (SHANGHAI SIMR BIOTECHNOLOGY CO., LTD., priority 2022, published 2026):

Columns and labels:
[1] = molecular target: T1, human α2-GABAA receptor (BZD site, membrane protein of HEK293 cells) (Homo sapiens, UniProt P18507+P47869); experiment: Radioligand competitive binding assay (3H-flunitrazepam) at the BZD site of the α2-GABAA receptor; details: competition with 1 nM 3H-flunitrazepam; Ki calculated from IC50; read-out: α2 Ki
T1 construct: expressed in transfected cells

[2] = molecular target: T2, human α2-GABAA receptor (α2-GABAAR-HEK293 cells) (Homo sapiens, UniProt P18507+P47869); experiment: Whole-cell patch-clamp electrophysiology, positive allosteric modulatory activity on α2-GABAA receptor; type: cell-based; details: read-out: α2-GABAA positive allosteric modulatory activity
T2 construct: expressed in transfected cells

Row | Ki [1] | activation at 0.1 µM [2] | SMILES
1 | 3.38 nM | 114% | CCn1cnc2c(-c3ccc(F)c(-c4cc5oc(=O)n(C)c5cc4OC)c3)cnnc21 [Example 87, 6-(5-(7-Ethyl-7H-imidazo[4,5-c]pyridazin-4-yl)-2-fluorophenyl)-5-methoxy-3-methylbenzo[d]oxazol-2(3H)-one]
2 | 8.7 nM | 118% | CCn1cnc2c(-c3ccc(F)c(-c4cc5c(cc4OC)N(C)C(=O)C5)c3)cnnc21 [Example 161, 5-(5-(7-Ethyl-7H-imidazo[4,5-c]pyridazin-4-yl)-2-fluorophenyl)-6-methoxy-1-methyldihydro-2-one]

More lines, now with the values behind:

Row | SMILES | Ki [1] | activation at 0.1 µM [2]
3 | CCN1C(=O)COc2cc(-c3cc(-c4cnnc5c4ncn5CC)ccc3F)c(OC)cc21 [Example 31, 4-Ethyl-7-(5-(7-ethyl-7H-imidazo[4,5-c]pyridazin-4-yl)-2-fluorophenyl)-6-methoxy-2H-benzo[b][1,4]oxazin-3(4H)-one] | 6.85 nM | 96%
4 | COc1cc2c(cc1-c1cc(-c3cnnc4c3ncn4C(C)C)ccc1F)OCC(=O)N2C [Example 36, 7-(2-Fluoro-5-(7-isopropyl-7H-imidazo[4,5-c]pyridazin-4-yl)phenyl)-6-methoxy-4-methyl-2H-benzo[b][1,4]oxazin-3(4H)-one] | 5.73 nM | 137%
5 | CCn1cnc2c(-c3ccc(F)c(-c4cc5c(cc4OC)N(C)C(=O)CO5)c3)cnnc21 [Example 42, 7-(5-(7-Ethyl-7H-imidazo[4,5-c]pyridazin-4-yl)-2-fluorophenyl)-6-methoxy-4-methyl-2H-benzo[b][1,4]oxazin-3(4H)-one] | 2.92 nM | 145%
